Here are results for 24 compounds from US5821240A, “Pyrimido[5,4]-dipyrimidines, pharmaceuticals containing them, their use and processes for the preparation thereof” (Dr. Karl Thomae GmbH, priority 1996, dated 1998).

Assay [1] concerns F/L-HERc cells. The assay is described as follows: Inhibition of IL-3-dependent proliferation of F/L-HERc cells. The following applies: Mus musculus, murine IL-3, 37° C., 48 hours. It is filed as cell-based. The source says: (§1) In this case, an interleukin-3 (IL-3)-dependent cell line of murine origin was used and was genetically modified in such a way that it expresses functional human EGF-R. Proliferation of these cells, which are called F/L-HERc, can therefore be stimulated either by murine IL-3 or by EGF (see von Ruden, T. et al. in EMBO J. 7, 2749-2756 (1988) and Pierce, J. H. et al. in Science 239, […] (1988)).
(§2) The starting material for the F/L-HERc cells was the cell line FDC-P1 whose preparation has been described by Dexter, T. M. et al. in J. Exp. Med. 152, 1036-1047 (1980). However, it is also possible as an alternative to use other growth factor-dependent cells (see, for example, Pierce, J. H. et al. in Science 239, 628-631 (1988), Shibuya, H. et al. in Cell 70, 57-67 (1992) and Alexander, W. S. et al. in EMBO J. 10, 3683-3691 (1991)). Recombinant retroviruses as described in von Ruden, T. et al., EMBO J. 7, 2749-2756 (1988) Were used for expression of the human EGF-R cDNA (see Ullrich, A. et al. in Nature 309, 418-425 (1984)), with the difference that the retroviral vector LXSN (see Miller, A. D. et al. in BioTechniques 7, 980-990 (1989)) was employed for expression of the EGF-R cDNA, and the line GP+E86 (see Markowitz, D. et al. in J. Virol. 62, 1120-1124 (1988)) was used as packaging cell.
(§3) F/L-HERc cells were cultivated in RPMI/1640 medium (BioWhittaker), supplemented with 10% fetal calf serum (FCS, Boehringer Mannheim), 2 mM glutamine (BioWhittaker), standard antibiotics and 20 ng/ml human EGF (Promega), at 37° C. and 5% CO2. To investigate the inhibitor activity of the compounds according to the invention, 1.5×10^4 cells were cultivated in the above medium (200 μl) per well in triplicates in 96-well plates, stimulating proliferation of the cells either with EGF (20 ng/ml) or with murine IL-3. The source used for IL-3 was culture supernatants from the cell line X63/0 mIL-3 (see Karasuyama, H. et al. in Eur. J. Immunol. 18, 97-104 (1988)). The compounds according to the invention were dissolved in 100% dimethyl sulphoxide (DMSO) and added in various dilutions to the cultures, with the maximum DMSO concentration being 1%. The cultures were incubated at 37° C. for 48 hours.
(§4) To determine the inhibitory activity of the compounds according to the invention, the relative cell count was measured in O.D. units using the Cell Titre 96™ AQueous Non-Radioactive Cell Proliferation Assay (Promega). The relative cell count was calculated as a percent of the control (F/L-HERc cells without inhibitor), and the concentration of active substance which inhibits the proliferation of the cells by 50% (IC50) was inferred.

Assay [2] relates to F/L-HERc cells expressing human EGF-R. Nature of the assay: Inhibition of EGF-dependent proliferation of F/L-HERc cells. Format: cell-based, murine cell line; human EGF-R. The following applies: EGF 20 ng/ml, 37° C., 48 hours.
Description: as §1, §2, §3, §4

Assay [3] concerns human tumour cell line KB. The assay is described as follows: Inhibition of EGF/TGF-alpha-stimulated KB cell proliferation ([3H]-thymidine incorporation). Format: cell-based. Conditions: TGF-alpha 10 ng/ml or EGF 20 ng/ml, serum-free, 60 hours then [3H]-thymidine 16-18 h. Here is the method: KB cells (purchased from ATCC) were passaged in DMEM (BioWhittaker) in the presence of 10% FCS (Boehringer Mannheim), 50 μM beta-mercaptoethanol and standard antibiotics. The EGF-induced DNA synthesis was determined by measuring the incorporation of radioactively labelled thymidine as indicator of EGF/TGF-alpha-stimulated cell proliferation. To do this, the cells were washed twice and 1500 cells per well were plated out in a 96-well plate in 200 μl of IMDM (BioWhittaker) without serum in the presence of 50 μM beta-mercaptoethanol, standard antibiotics, TGF-alpha [10 ng/ml] or EGF [20 ng/ml] and of various concentrations of the substances according to the invention (triplicates, maximum DMSO concentration 1%, see proliferation t t with F/L-HERc cells). After 60 hours, [^3 H]-thymidine (0.1 μCi in 10 μl) was added for about 16-18 h.
For orientation: Uptake of a labelled nucleoside into DNA is a usual measure of proliferation.

As for `COC(=O)N1CCC(Nc2ncc3ncnc(Nc4ccc(F)c(Cl)c4)c3n2)CC1` [1(8), 4-[(3-Chloro-4-fluorophenyl)amino]-6-[1-methoxycarbonyl-4-piperidinylamino]pyrimido[5,4-d]pyrimidine], the IC50 – broadly, the concentration at which inhibition is half-maximal – is greater than 10000 nM in assay [1], 3 nM in assay [2] and 100 to 1000 nM in assay [3].

Take `CCN(CC)CC(C)Nc1ncc2ncnc(Nc3ccc(F)c(Cl)c3)c2n1` (stereo not drawn) [1(21), 4-[(3-Chloro-4-fluorophenyl)amino]-6-[1-(N,N-diethylamino)-2-propylamino]pyrimido[5,4-d]pyrimidine]: the IC50 in assay [1] was greater than 1000 nM; in assay [2], 300 nM; in assay [3], 100 to 1000 nM.

As for `Fc1ccc(Nc2ncnc3cnc(N4CCC(C5CCNCC5)CC4)nc23)cc1Cl` [1(19), 4-[(3-Chloro-4-fluorophenyl)amino]-6-[4-(4-piperidinyl)-1-piperidinyl]pyrimido[5,4-d]pyrimidine], the results for the IC50 in assay [1], in assay [2] and in assay [3] were greater than 1000 nM, 83 nM and 100 to 1000 nM, respectively.

`COC(=O)[C@H]1CC[C@H](Nc2ncc3ncnc(Nc4ccc(F)c(Cl)c4)c3n2)CC1` [Example 1, 4-[(3-Chloro-4-fluorophenyl)amino]-6-[(trans-4-methoxycarbonylcyclohexyl)amino]pyrimido[5,4-d]pyrimidine]: the IC50 in assay [1] was greater than 10000 nM; in assay [2], 200 nM.

Regarding `Fc1ccc(Nc2ncnc3cnc(N4CCC(N5CCCC5)CC4)nc23)cc1Cl` [1(31), 4-[(3-Chloro-4-fluorophenyl)amino]-6-[4-(1-pyrrolidinyl)-1-piperidinyl]pyrimido[5,4-d]pyrimidine], the IC50 in assay [1] was found to be 10000 nM; in assay [2], 103 nM.

Take `Nc1ncc2ncnc(Nc3ccc(F)c(Cl)c3)c2n1` [1(53), 4-[(3-Chloro-4-fluorophenyl)amino]-6-aminopyrimido-[5,4-d]pyrimidine]: the IC50 was greater than 1000 nM in assay [1] and greater than 100 nM in assay [2].

With `CC(C)(C)OC(=O)N1CCCC(Nc2ncc3ncnc(Nc4ccc(F)c(Cl)c4)c3n2)CC1` (stereo not drawn) [1(57), 4-[(3-chloro-4-fluorophenyl)amino]-6-[1-tert-butyloxy-carbonyl-4-(azacycloheptyl)amino]pyrimido[5,4-d]pyrimidine], the IC50 was greater than 10000 nM in assay [1] and 88 nM in assay [2].

As to `Fc1ccc(Nc2ncnc3cnc(NC4CCCNCC4)nc23)cc1Cl` (stereo not drawn) [1(58), 4-[(3-Chloro-4-fluorophenyl)amino]-6-[4-(azacycloheptyl)amino]pyrimido[5,4-d]pyrimidine], the IC50 was greater than 1000 nM in assay [1] and 4 nM in assay [2].

Consider `NCCCCNc1ncc2ncnc(Nc3ccc(F)c(Cl)c3)c2n1` [1(10), 4-[(3-Chloro-4-fluorophenyl)amino]-6-[4-aminobutylamino]pyrimido[5,4-d]pyrimidine], for which the IC50 in assay [1] was greater than 10000 nM; in assay [2], 17 nM.

`Fc1ccc(Nc2ncnc3cnc(N4CCCCC4)nc23)cc1Cl` [1(49), 4-[(3-chloro-4-fluorohenyl)amino]-6-[1-piperidinyl]pyrimido[5,4-d]pyrimidine]: the IC50 in assay [1] and in assay [2] was greater than 1000 nM throughout.

On to `O=CNC1CCN(c2ncc3ncnc(Nc4ccc(F)c(Cl)c4)c3n2)CC1` [1(5), 4-[(3-Chloro-4-fluorophenyl)amino]-6-[4-formylamino-1-piperidinyl]pyrimido[5,4-d]pyrimidine], for which the IC50 in assay [1] is greater than 10000 nM; in assay [2] it was 21 nM.

As to `CC1CC(c2ccc(O)cc2)CN1c1ncc2ncnc(Nc3ccc(F)c(Cl)c3)c2n1` (stereo not drawn) [1(36), 4-[(3-Chloro-4-fluorophenyl)amino]-6-[4-(4-hydroxyphenyl)-2-methyl-1-pyrrolidinyl]pyrimido[5,4-d]pyrimidine], the IC50 in assay [1] is greater than 1000 nM; in assay [2], 140 nM.

Take `CN1CCN(C2CCC(Nc3ncc4ncnc(Nc5ccc(F)c(Cl)c5)c4n3)CC2)CC1` (stereo not drawn) [1(46), 4-[(3-Chloro-4-fluorophenyl)amino]-6-[4-(1-methyl-4-piperazinyl)cyclohexylamino]pyrimido[5,4-d]pyrimidine]: the IC50 was greater than 1000 nM in assay [1] and 2 nM in assay [2].

For the compound `Fc1ccc(Nc2ncnc3cnc(NC4CCCN(Cc5ccccc5)CC4)nc23)cc1Cl` (stereo not drawn) [1(42), 4-[(3-Chloro-4-fluorophenyl)amino]-6-[1-benzyl-4-(1-azacycloheptyl)amino]pyrimido[5,4-d]pyrimidine], the results for the IC50 in assay [1] and in assay [2] were greater than 1000 nM and greater than 100 nM, respectively.

`O[C@H]1CC[C@H](Nc2ncc3ncnc(Nc4ccc(-c5ccccc5)cc4)c3n2)CC1` [1(63), 4-[4-Biphenylylamino]-6-[trans-4-hydroxycyclohexylamino]pyrimido[5,4-d]pyrimidine]: the IC50 in assay [1] and in assay [2] was greater than 10000 nM in each case.

On to `NCCCNc1ncc2ncnc(Nc3ccc(F)c(Cl)c3)c2n1` [1(9), 4-[(3-Chloro-4-fluorophenyl)amino]-6-[3-aminopropylamino]pyrimido[5,4-d]pyrimidine], for which the IC50 in assay [1] was greater than 10000 nM; in assay [2], 18 nM.

`O=C(N1CCOCC1)N1CCN(CCNc2ncc3ncnc(Nc4ccc(F)c(Cl)c4)c3n2)CC1` [1(52), 4-[(3-Chloro-4-fluorophenyl)amino]-6-[2-(4-(morpholinocarbonyl)-1-piperazinyl)ethylamino]pyrimido[5,4-d]pyrimidine]: the IC50 in assay [1] was greater than 1000 nM; in assay [2] it was 10 nM.

Regarding `CC(N)CNc1ncc2ncnc(Nc3ccc(F)c(Cl)c3)c2n1` (stereo not drawn) [1(11), 4-[(3-Chloro-4-fluorophenyl)amino]-6-[2-amino-1-propylamino]pyrimido[5,4-d]pyrimidine], the results for the IC50 in assay [1] and in assay [2] were greater than 10000 nM and 75 nM, respectively.

`Nc1c(Br)cc(Nc2ncnc3cnc(N4CCC(N)CC4)nc23)cc1Br` [1(3), 4-[(4-Amino-3,5-dibromophenyl)amino]-6-[4-amino-1-piperidinyl]pyrimido[5,4-d]pyrimidine]: the IC50 in assay [1] is greater than 1000 nM; in assay [2], 67 nM.

On to `CC(C)(N)CNc1ncc2ncnc(Nc3ccc(F)c(Cl)c3)c2n1` [1(27), 4-[(3-Chloro-4-fluorophenyl)amino]-6-[2-amino-2-methyl-1-propylamino]pyrimido[5,4-d]pyrimidine], for which the IC50 in assay [1] is greater than 10000 nM; in assay [2], 40 nM.

Turning to `CC(C)(C)OC(=O)N1CCN(CCNc2ncc3ncnc(Nc4ccc(F)c(Cl)c4)c3n2)CC1` [1(35), 4-[(3-Chloro-4-fluorophenyl)amino]-6-[2-(4-tert-butyloxycarbonyl-1-piperazinyl)ethylamino]pyrimido[5,4-d]pyrimidine], the values for the IC50 in assay [1] and in assay [2] were greater than 1000 nM and 240 nM, respectively.

As to `NC1CCCN(c2ncc3ncnc(Nc4ccc(F)c(Cl)c4)c3n2)CC1` (stereo not drawn) [1(56), 4-[(3-Chloro-4-fluorophenyl)amino]-6-[4-amino-1-azacycloheptyl]pyrimido[5,4-d]pyrimidine], the IC50 in assay [1] is greater than 1000 nM; in assay [2] it was 40 nM.

Regarding `Fc1ccc(Nc2ncnc3cnc(N4CCCCCC4)nc23)cc1Cl` [1(55), 4-[(3-Chloro-4-fluorophenyl)amino]-6-[1-azacycloheptyl]pyrimido[5,4-d]pyrimidine], the IC50 is greater than 1000 nM in assay [1] and 40 nM in assay [2].

For the compound `COC(CNc1ncc2ncnc(Nc3ccc(F)c(Cl)c3)c2n1)OC` [1(25), 4-[(3-Chloro-4-fluorophenyl)amino]-6-[2,2-dimethoxyethylamino]pyrimido[5,4-d]pyrimidine], the IC50 in assay [1] is greater than 20000 nM; in assay [2] it was 28 nM.
